Experimental data reported in patent US9776965B2, “Pyrrolidin-2-one and piperidin-2-one derivatives as 11-beta hydroxysteroid dehydrogenase inhibitors” (Janssen Pharmaceutica N.V., priority 2004, dated 2017).

Key:
[1] = biological target: T1, 11b-HSD2 (Homo sapiens, UniProt P80365); assay: Cellular assay, 11b-HSD2 activity in HepG2 cells; assay type: cell-based; parameters: endogenous in cells; host or cells: HepG2 (ATCC HB-8065); details: 4 hour pre-incubation; for IC50: read-out: [C2] HSD2 cellular HepG2 Score
T1 sequence (P80365 1-405): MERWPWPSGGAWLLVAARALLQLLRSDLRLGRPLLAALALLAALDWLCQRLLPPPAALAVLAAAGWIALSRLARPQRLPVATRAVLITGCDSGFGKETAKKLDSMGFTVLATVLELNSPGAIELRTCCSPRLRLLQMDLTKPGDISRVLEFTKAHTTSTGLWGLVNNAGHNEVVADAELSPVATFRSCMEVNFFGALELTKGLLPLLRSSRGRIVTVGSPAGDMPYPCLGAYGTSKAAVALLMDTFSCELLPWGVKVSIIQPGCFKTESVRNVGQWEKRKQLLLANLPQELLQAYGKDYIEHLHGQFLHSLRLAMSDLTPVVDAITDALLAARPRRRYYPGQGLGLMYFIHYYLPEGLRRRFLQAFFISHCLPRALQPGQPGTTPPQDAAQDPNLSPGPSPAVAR
Experimental: The effects on 11b-HSD2 activity was studied in HepG2 and LCC-PK1-cells HepG2-cells (ATCC HB-8065) were seeded in 12 well plates at a density of 100,000 cells/ml and grown at 37 C in a humidified 5% CO2 atmosphere in MEM-Rega-3 medium supplemented with 10% heat inactivated foetal calf serum, 2 mM L-glutamine and sodium bicarbonate). Medium was refreshed twice a week.
Following a 4 hour pre-incubation with test compound, 0.5 μCi ^3H-cortisol or corticosterone, was added to the cultures. One hour later, the medium was extracted on Extrelut^3-columns with 15 ml diethyl ether and the extract was analysed by HPLC as described above.
(§1) As for the enzymatic assays, the compounds to be tested were taken from a stock solution and tested at a final concentration ranging from […] to 3.10^−9M. From the thus obtained dose response curves, the pIC50 value was calculated and scored as follows; Score 1=pIC50 value<5, Score 2=pIC50 value in the range of 5 to 6, Score 3=pIC50 value>6. Some of the thus obtained results are summarized in the table below (in this table NT stands for Not Tested).

[2] = biological target: 11b-HSD1 (Homo sapiens, UniProt P28845); assay: Enzymatic assay, 11b-HSD1 dependent conversion of cortisone into cortisol (reductase activity); assay type: biochemical; details: recombinant protein, 2 μM cortisone, 45 min at 37 C; for IC50: read-out: [C1] HSD1-prot Reduct Score
Chain of 11b-HSD1 (Homo sapiens, UniProt P28845) (P28845 whole entry): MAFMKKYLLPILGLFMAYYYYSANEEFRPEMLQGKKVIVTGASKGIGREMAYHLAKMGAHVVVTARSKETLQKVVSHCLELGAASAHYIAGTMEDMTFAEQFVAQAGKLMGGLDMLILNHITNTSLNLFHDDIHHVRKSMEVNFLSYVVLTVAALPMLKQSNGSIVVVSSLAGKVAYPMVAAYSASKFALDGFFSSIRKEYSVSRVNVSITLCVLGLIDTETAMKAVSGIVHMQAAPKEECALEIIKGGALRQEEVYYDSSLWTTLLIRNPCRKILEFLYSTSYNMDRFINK
Experimental: The effects of compounds on 11b-HSD1 dependent conversion of cortisone into cortisol (reductase activity) was studied in a reaction mixture containing 30 mM Tris-HCl buffer pH 7.2, 180 μM NADPH, 1 mM EDTA, 2 μM cortisone, 1 μl drug and/or solvent and 11 μg recombinant protein in a final volume of 100 μl.
(§2) All incubations were performed for 45 min at 37 C in a water bath. The reaction was stopped by adding 100 μl acetonitrile containing 20 μg corticosterone as internal standard. After centrifugation, the product formation was analysed in the supernatant by HPLC on a Hypersyl BDS-C18 column using 0.05 mM ammonium acetate/methanol (50/50) as solvent. In all of the aforementioned assays, the drugs to be tested were taken from a stock solution and tested at a final concentration ranging from […] to 3.10^−9M. From the thus obtained dose response curves, the pIC50 value was calculated and scored as follows; Score 1=pIC50 value<5, Score 2=pIC50 value in the range of 5 to 6, Score 3=pIC50 value>6. (in this table NT stands for Not Tested).

[3] = biological target: T2, 11b-HSD1 (Mus musculus, UniProt P50172); assay: Cellular assay, 11b-HSD1 activity in differentiated 3T3-L1 cells; assay type: cell-based; details: 4 hour pre-incubation; for IC50: read-out: [C2] HSD1 cellular 3T3-L1 Score
T2 construct: Fibroblasts were differentiated into adipocytes; endogenous in cells; host or cells: differentiated 3T3-L1 cells (ATCC-CL-173)
T2 sequence (P50172 whole entry): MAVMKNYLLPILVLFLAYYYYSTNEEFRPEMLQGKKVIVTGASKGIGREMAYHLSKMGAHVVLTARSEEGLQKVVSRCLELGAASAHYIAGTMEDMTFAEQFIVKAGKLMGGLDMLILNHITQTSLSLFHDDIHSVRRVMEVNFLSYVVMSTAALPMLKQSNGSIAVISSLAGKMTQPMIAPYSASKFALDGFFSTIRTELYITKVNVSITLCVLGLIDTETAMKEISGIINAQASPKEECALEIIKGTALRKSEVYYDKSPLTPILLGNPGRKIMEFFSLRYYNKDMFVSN
Experimental: The effects on 11b-HSD1 activity was measured in differentiated 3T3-L1 cells and rat hepatocytes.
Mouse fibroblast 3T3-L1 cells (ATCC-CL-173) were seeded at a density of 16500 cells/ml in 12 well plates and grown for 7 days in DMEM medium (supplemented with 10% heat inactivated foetal calf serum, 2 mM glutamine and 25 mg gentamycin) at 37 C in a humidified 5% CO2 atmosphere. Medium was refreshed twice a week. Fibroblasts were differentiated into adipocytes at 37 C in a 5% CO2 humidified atmosphere in growth medium containing 2 μg/ml insulin, 55 μg/ml IBMX and 39.2 μg/ml dexamethasone.
Following a 4 hour pre-incubation with test compound, 0.5 μCi ^3H-cortisone or dehydrocorticosterone, was added to the cultures. One hour later, the medium was extracted on Extrelut^3-columns with 15 ml diethyl ether and the extract was analysed by HPLC as described above.
as §1

[4] = biological target: T1, 11b-HSD2; assay: Enzymatic assay, 11b-HSD2 dependent dehydrogenase activity; assay type: biochemical; details: recombinant protein, 100 nM cortisol, 45 min at 37 C; read-out: [C1] HSD2 prot Dehydro Score
Experimental: The effects on the 11b-HSD2 dependent dehydrogenase activity was studied in a reaction mixture containing 0.1M sodium phosphate buffer pH 7.5, 300 μM NAD, 100 nM cortisol (of which 2 nM is 3H-radio labelled), 1 μl drug and/or solvent and 2.5 μg recombinant protein in a final volume of 100 μl.
as §2

Row | Compound | IC50 [1] | IC50 [2] | IC50 [3] | IC50 [4] | [C2] HSD2 cellular HepG2 Score [1] | [C1] HSD1-prot Reduct Score [2] | [C2] HSD1 cellular 3T3-L1 Score [3]
1 | Cc1ccccc1C[C@H]1CCN([C@@H](C)c2ccccc2)C1=O [Compound 2] | > 10 µM | 1 to 10 µM | 1 to 10 µM |  |  |  | 
2 | C[C@@H](c1ccccc1)N1CC[C@H](Cc2ccccc2)C1=O [Compound 6] | > 10 µM | 1 to 10 µM | 1 to 10 µM |  |  |  | 
3 | CC[C@H](c1ccccc1)N1CC[C@@H](Cc2c(Cl)cccc2Cl)C1=O [Compound 97] | > 10 µM | < 1 µM | > 10 µM | 1 to 10 µM |  |  | 
4 | O=C1C(Cc2ccccc2Cl)CCN1Cc1ccccc1 (centres unmarked) [Compound 57] | > 10 µM | 1 to 10 µM | < 1 µM | > 10 µM |  |  | 
5 | COc1ccccc1C[C@H]1CCN([C@@H](C)c2ccccc2)C1=O [Compound 7] | > 10 µM | 1 to 10 µM | < 1 µM | > 10 µM |  |  | 
6 | Cc1cccc(C)c1C[C@H]1CCN([C@@H](C)c2ccccc2)C1=O [Compound 148] | > 10 µM | > 10 µM | < 1 µM |  |  |  | 
7 | O=C1C(Cc2c(Cl)cccc2Cl)CCN1Cc1ccccc1 (centres unmarked) [Compound 59] | > 10 µM | 1 to 10 µM | < 1 µM | > 10 µM |  |  | 
8 | O=C1C(Cc2c(Cl)cccc2Cl)CCN1CCc1ccccc1 (centres unmarked) [Compound 32] | > 10 µM | < 1 µM | < 1 µM | > 10 µM |  |  | 
9 | C[C@@H](c1ccccc1)N1CC[C@@H](Cc2c(F)cccc2F)C1=O [Compound 70] | > 10 µM | > 10 µM | < 1 µM |  |  |  | 
10 | C[C@@H](c1ccccc1)N1CC[C@@H](Cc2ccccc2)C1=O [Compound 5] | > 10 µM | 1 to 10 µM | 1 to 10 µM |  |  |  | 
11 | Cc1ccccc1C[C@@H]1CCN([C@@H](C)c2ccccc2)C1=O [Compound 1] | > 10 µM | < 1 µM | < 1 µM | > 10 µM |  |  | 
12 | O=C1C(Cc2c(Cl)cccc2Cl)CCN1CCc1ccc(F)cc1 (centres unmarked) [Compound 80] | > 10 µM | < 1 µM | < 1 µM |  |  |  | 
13 | C[C@@H](c1ccccc1)N1CC[C@H](Cc2cc3c(cc2Cl)OCO3)C1=O [Compound 154] | 1 to 10 µM | > 10 µM | < 1 µM |  |  |  | 
14 | Cc1ccccc1CC1CCN(CCc2ccccc2)C1=O (centres unmarked) [Compound 28] | > 10 µM | > 10 µM | < 1 µM | > 10 µM |  |  | 
15 | Cc1ccc(C[C@@H]2CCN([C@@H](C)c3ccccc3)C2=O)cc1 [Compound 3] | > 10 µM | < 1 µM | 1 to 10 µM |  |  |  | 
16 | Cc1cccc(C)c1C[C@@H]1CCN([C@@H](C)c2ccccc2)C1=O [Compound 149] | > 10 µM | > 10 µM | < 1 µM |  |  |  | 
17 | Cc1ccc(CC2CCN(CCc3ccccc3)C2=O)cc1 (centres unmarked) [Compound 35] | > 10 µM | > 10 µM | < 1 µM | > 10 µM |  |  | 
18 | O=C1C(Cc2cccc(Cl)c2Cl)CCN1CCc1ccccc1 (centres unmarked) [Compound 31] | > 10 µM | 1 to 10 µM | < 1 µM | > 10 µM |  |  | 
19 | C[C@H](c1ccccc1)N1CC[C@H](Cc2c(Cl)cccc2Cl)C1=O [Compound 45] | > 10 µM | < 1 µM | < 1 µM | > 10 µM |  |  | 
20 | Cc1ccccc1C(C)[C@@H]1CCN([C@@H](C)c2ccccc2)C1=O (some centres unmarked) [Compound 162] | > 10 µM | < 1 µM | < 1 µM | 1 to 10 µM |  |  | 

Row | Compound | IC50 [1] | IC50 [2] | IC50 [3] | IC50 [4] | [C2] HSD2 cellular HepG2 Score [1] | [C1] HSD1-prot Reduct Score [2] | [C2] HSD1 cellular 3T3-L1 Score [3]
21 | Cc1cccc(C)c1C[C@H]1CCN([C@@H](C)c2ccccc2)C1=O [Compound 77] |  |  |  |  | 1 (Score 1=pIC50 value<5) | 3 (Score 3=pIC50 value>6) | 3 (Score 3=pIC50 value>6)
22 | C[C@@H](c1ccccc1)N1CC[C@H](Cc2ccccc2Cl)C1=O [Compound 9] | > 10 µM | 1 to 10 µM | < 1 µM | > 10 µM |  |  | 
23 | C[C@@H](c1ccccc1)N1CC[C@@H](Cc2ccccc2Cl)C1=O [Compound 10] | > 10 µM | < 1 µM | < 1 µM | > 10 µM |  |  | 
24 | C[C@@H](c1ccccc1)N1CC[C@H](Cc2c(Cl)cccc2Cl)C1=O [Compound 13] | > 10 µM | < 1 µM | < 1 µM | > 10 µM |  |  | 
25 | C[C@@H](c1ccccc1)N1CC[C@H](Cc2c(F)cccc2F)C1=O [Compound 71] | > 10 µM | < 1 µM | < 1 µM |  |  |  | 
26 | Cc1ccccc1CC1(Cc2ccccc2)CCN([C@@H](C)c2ccccc2)C1=O (mixture of isomers) [Compound 147] |  | > 10 µM | > 10 µM |  |  |  | 
27 | Cc1ccc([C@H](O)[C@@H]2CCN([C@@H](C)c3ccccc3)C2=O)c(C)c1 [Compound 69] | > 10 µM | 1 to 10 µM | < 1 µM |  |  |  | 
28 | CC[C@@H](C[C@@H]1CCN([C@@H](C)c2ccccc2)C1=O)c1ccccc1 [Compound 139] |  | < 1 µM | < 1 µM |  |  |  | 
29 | C[C@@H](c1ccccc1)N1CC[C@H](Cc2ccc(F)cc2Cl)C1=O [Compound 150] |  | < 1 µM | < 1 µM |  |  |  | 
30 | O=C1C(Cc2ccc3c(c2)OCO3)CCN1CCc1ccccc1 (centres unmarked) [Compound 89] |  | > 10 µM | 1 to 10 µM |  |  |  | 
31 | C[C@@H](c1ccccc1)N1CC[C@H](CCc2ccccc2)C1=O [Compound 73] |  | < 1 µM | 1 to 10 µM |  |  |  | 
32 | C[C@@H](c1ccccc1)N1CCC(CCc2cccc3ccccc23)(CCc2cccc3ccccc23)C1=O [Compound 116] |  | > 10 µM | > 10 µM |  |  |  | 
33 | Cc1ccc(C[C@H]2CCN([C@@H](C)c3ccccc3)C2=O)cc1 [Compound 4] | > 10 µM | > 10 µM | 1 to 10 µM |  |  |  | 
34 | Cc1ccc([C@@H](O)[C@H]2CCN([C@@H](C)c3ccccc3)C2=O)c(C)c1 [Compound 90] |  | > 10 µM | 1 to 10 µM |  |  |  | 
35 | Cc1cccc(CC2CCN(Cc3ccccc3)C2=O)c1 (centres unmarked) [Compound 56] |  | > 10 µM | 1 to 10 µM |  |  |  | 
36 | Cc1cccc(C)c1CC1CCN(CCc2ccccc2)C1=O (centres unmarked) [Compound 83] |  | < 1 µM | > 10 µM |  |  |  | 
37 | C[C@H](C[C@H]1CCN([C@@H](C)c2ccccc2)C1=O)c1ccccc1 [Compound 137] |  | < 1 µM | < 1 µM |  |  |  | 
38 | CC[C@@]1(Cc2ccccc2C)CCN([C@H](C)c2ccccc2)C1=O [Compound 144] |  | > 10 µM | > 10 µM |  |  |  | 
39 | COc1cc(C[C@H]2CCN([C@@H](C)c3ccccc3)C2=O)ccc1OCc1ccccc1 [Compound 122] |  | 1 to 10 µM | 1 to 10 µM |  |  |  | 
